Measured values as given in US9884063B2, “Amido-substituted azole compounds” (Bayer Pharma Aktiengesellschaft, priority 2014, dated 2018).

Target: T1, TNKS1 (Homo sapiens, UniProt O95271)
T1 sequence (O95271 1-1327): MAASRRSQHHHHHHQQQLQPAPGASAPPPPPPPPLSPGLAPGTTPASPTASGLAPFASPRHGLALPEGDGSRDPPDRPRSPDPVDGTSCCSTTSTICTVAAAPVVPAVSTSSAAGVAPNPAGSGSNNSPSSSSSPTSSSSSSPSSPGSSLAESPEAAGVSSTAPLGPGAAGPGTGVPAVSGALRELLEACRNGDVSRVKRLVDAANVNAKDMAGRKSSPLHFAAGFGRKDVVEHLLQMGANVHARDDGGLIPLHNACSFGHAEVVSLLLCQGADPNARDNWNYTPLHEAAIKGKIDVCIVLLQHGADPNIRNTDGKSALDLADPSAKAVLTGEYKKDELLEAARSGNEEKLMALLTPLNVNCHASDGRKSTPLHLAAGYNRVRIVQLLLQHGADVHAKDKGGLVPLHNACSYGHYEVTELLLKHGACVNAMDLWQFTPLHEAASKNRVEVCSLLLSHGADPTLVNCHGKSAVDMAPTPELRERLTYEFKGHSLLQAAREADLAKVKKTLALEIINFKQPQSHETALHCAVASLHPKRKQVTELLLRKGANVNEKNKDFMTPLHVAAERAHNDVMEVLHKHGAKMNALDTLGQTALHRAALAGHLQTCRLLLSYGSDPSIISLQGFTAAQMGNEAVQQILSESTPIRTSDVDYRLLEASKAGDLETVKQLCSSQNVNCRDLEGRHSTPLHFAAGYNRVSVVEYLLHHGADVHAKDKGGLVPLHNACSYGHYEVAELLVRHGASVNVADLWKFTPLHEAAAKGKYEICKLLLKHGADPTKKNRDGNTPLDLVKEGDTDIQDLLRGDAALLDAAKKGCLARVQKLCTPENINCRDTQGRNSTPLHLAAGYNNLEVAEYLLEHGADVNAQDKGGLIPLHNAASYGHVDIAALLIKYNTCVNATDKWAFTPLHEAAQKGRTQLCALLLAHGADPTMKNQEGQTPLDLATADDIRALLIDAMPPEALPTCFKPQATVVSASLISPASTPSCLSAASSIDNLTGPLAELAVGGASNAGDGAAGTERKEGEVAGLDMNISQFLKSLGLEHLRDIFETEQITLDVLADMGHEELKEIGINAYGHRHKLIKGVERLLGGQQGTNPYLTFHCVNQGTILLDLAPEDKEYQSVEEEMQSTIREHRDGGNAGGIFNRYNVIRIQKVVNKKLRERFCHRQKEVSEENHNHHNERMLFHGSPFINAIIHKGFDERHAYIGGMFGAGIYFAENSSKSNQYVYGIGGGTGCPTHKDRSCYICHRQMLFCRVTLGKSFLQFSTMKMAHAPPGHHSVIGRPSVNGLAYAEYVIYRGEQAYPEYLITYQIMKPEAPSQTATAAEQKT
Test: Modified TNKS1 Assay 2 (auto-parsylation, [3H]-NAD+ SPA)
Assay type: biochemical
Conditions: 6 nM TNKS1, 96 well
Procedure: The potency of selected compounds according to the invention was assessed applying an modified in vitro inhibition assay. Here, the TNKS1 catalyzed NAD^+-dependent ribosylation of the enzyme itself (auto-parsylation) was detected using [^3H]-NAD^+ as substrate and applying the scintillation proximity assay (SPA) method to detect tritium-labeled, parsylated TNKS1. The intensity of the readout signal is proportional to the incorporated [^3H]-NAD^+. Inhibition of TNKS1 leads to a decreased incorporation of [^3H]-NAD^+ and consequently to a lower readout signal intensity. The concentration of a test compound which inhibits the enzyme activity by 50% (corresponds to half of the normed readout signal intensity) is reported as IC50.
The assay was conducted in a 96 well MTP format with the identical TNKS1 enzyme sample and NAD^+ sample as in the histone ribosylation assay with the following modifications: TNKS1 enzyme sample was diluted with a modified assay buffer (50 mM MES pH 7.0, 1 mM DTT, 0.01% Triton X-100) to a final concentration of 6 nM TNKS1 and 10×NAD^+ solution was diluted with the modified assay buffer (s. above) to a final 0.445×NAD^+ solution doped with 100 Bq/ul [^3H]-NAD^+[Catalog #NET443H050UC, Perkin Elmer, Waltham, Mass., USA]. Substrate solution (10 ul) was incubated with different test compound concentrations (2.5 ul in 10% DMSO in modified assay buffer) or control (2.5 ul 10% DMSO in modified assay buffer only) and enzyme (10 ul) over night at room temperature. Incorporated tritium was measured after addition of 50 ul SPA beads (1 mg/ml) [Catalog #RPNQ0095 20 mg/ml, Perkin Elmer, Waltham, Mass., USA; diluted 1:10 with Dulbecco's phosphate buffered saline, PBS Catalog #D8537, Sigma-Aldrich, Steinheim, Germany] and detection of the photon emission with a beta count plate reader [Wallac MicroBeta®, Perkin Elmer, Waltham, Mass., USA].

SMILES: O=C(Nc1ccc(NC(=O)c2nc[nH]c2C(=O)NC2CCOC2)cc1)c1ccc(F)cc1Cl (stereo not shown) [Example 236, N^4-{4-[(2-chloro-4-fluorobenzoyl)amino]phenyl}-N^5-(tetrahydrofuran-3-yl)-1H-imidazole-4,5-dicarboxamide]
- IC50: 30 nM

SMILES: CC1CCN(CCNC(=O)c2nc[nH]c2C(=O)Nc2ccc(NC(=O)c3ccc(F)cc3Cl)cc2)CC1 [Example 126, N^5-{4-[(2-chloro-4-fluorobenzoyl)amino]phenyl}-N^4-[2-(4-methylpiperidin-1-yl)ethyl]-1H-imidazole-4,5-dicarboxamide]
- IC50: 10 nM

SMILES: O=C(Nc1ccc(NC(=O)c2nc[nH]c2C(=O)NCCN2CCCC(F)C2)cc1)c1ccc(F)cc1Cl (stereo not shown) [Example 226, N^4-{4-[(2-chloro-4-fluorobenzoyl)amino]phenyl}-N^5-[2-(3-fluoropiperidin-1-yl)ethyl]-1H-imidazole-4,5-dicarboxamide]
- IC50: 4 nM

SMILES: CNC(=O)c1nc[nH]c1C(=O)Nc1ccc(NC(=O)c2ccccc2C)cc1 [Example 19, N^4-methyl-N^5-{4-[(2-methylbenzoyl)amino]phenyl}-1H-imidazole-4,5-dicarboxamide]
- IC50: 1800 nM

SMILES: CNC(=O)c1nc[nH]c1C(=O)Nc1ccc(NC(=O)c2ccc(OC(F)F)cc2F)cc1 [Example 251, N^5-(4-{[4-(difluoromethoxy)-2-fluorobenzoyl]amino}phenyl)-N^4-methyl-1H-imidazole-4,5-dicarboxamide]
- IC50: > 10000 nM

SMILES: O=C(NCCN1CCCCC1)c1nc[nH]c1C(=O)Nc1ccc(NC(=O)c2c(F)cc(F)cc2Cl)cc1 [Example 119, N^5-{4-[(2-chloro-4,6-difluorobenzoyl)amino]phenyl}-N^4-[2-(piperidin-1-yl)ethyl]-1H-imidazole-4,5-dicarboxamide]
- IC50: 2 nM

SMILES: CNC(=O)c1nc[nH]c1C(=O)Nc1ccc(NC(=O)c2cc(OC)ccc2Cl)cc1 [Example 248, N^5-{4-[(2-chloro-5-methoxybenzoyl)amino]phenyl}-N^4-methyl-1H-imidazole-4,5-dicarboxamide]
- IC50: 240 nM

SMILES: CNC(=O)c1nc[nH]c1C(=O)Nc1ccc(NC(=O)c2ccc(F)cc2Cl)cc1 [Example 12, N^5-{4-[(2-chloro-4-fluorobenzoyl)amino]phenyl}-N^4-methyl-1H-imidazole-4,5-dicarboxamide]
- IC50: 20 nM

SMILES: CC1CCN(CC(C)(C)NC(=O)c2[nH]cnc2C(=O)Nc2ccc(NC(=O)c3ccc(F)cc3Cl)cc2)CC1 [Example 155, N^4-{4-[(2-chloro-4-fluorobenzoyl)amino]phenyl}-N^5-[2-methyl-1-(4-methylpiperidin-1-yl)propan-2-yl]-1H-imidazole-4,5-dicarboxamide]
- IC50: 60 nM

SMILES: O=C(Nc1ccc(NC(=O)c2nc[nH]c2C(=O)NCCN2CCCCC2)cc1)c1ccc(F)cc1Br [Example 216, N^4-{4-[(2-bromo-4-fluorobenzoyl)amino]phenyl}-N^5-[2-(piperidin-1-yl)ethyl]-1H-imidazole-4,5-dicarboxamide]
- IC50: 7 nM

SMILES: CC(C)(CN1CCCCC1)NC(=O)c1[nH]cnc1C(=O)Nc1ccc(NC(=O)c2ccccc2Cl)cc1 [Example 171, N^4-{4-[(2-chlorobenzoyl)amino]phenyl}-N^5-[2-methyl-1-(piperidin-1-yl)propan-2-yl]-1H-imidazole-4,5-dicarboxamide]
- IC50: 200 nM

SMILES: CC(C)(C)CNC(=O)c1[nH]cnc1C(=O)Nc1ccc(NC(=O)c2ccccc2Cl)cc1 [Example 148, N^4-{4-[(2-chlorobenzoyl)amino]phenyl}-N^5-(2,2-dimethylpropyl)-1H-imidazole-4,5-dicarboxamide]
- IC50: 1300 nM

SMILES: CNC(=O)c1nc[nH]c1C(=O)Nc1ccc(NC(=O)c2c(Cl)cccc2Cl)cc1 [Example 26, N^5-{4-[(2,6-dichlorobenzoyl)amino]phenyl}-N^4-methyl-1H-imidazole-4,5-dicarboxamide]
- IC50: 1700 nM

SMILES: O=C(Nc1ccc(NC(=O)c2[nH]cnc2C(=O)NCC(F)(F)F)cc1)c1ccc(F)cc1Cl [Example 30, N^4-{4-[(2-chloro-4-fluorobenzoyl)amino]phenyl}-N^5-(2,2,2-trifluoroethyl)-1H-imidazole-4,5-dicarboxamide]
- IC50: 50 nM

SMILES: CCS(=N)(=O)c1ccc(C(=O)Nc2ccc(NC(=O)c3[nH]cnc3C(=O)NCCN3CCCCC3)cc2)c(Cl)c1 (stereo not shown) [Example 256, N^5-(4-{[2-chloro-4-(S-ethylsulfonimidoyl)benzoyl]amino}phenyl)-N^4-[2-(piperidin-1-yl)ethyl]-1H-imidazole-4,5-dicarboxamide]
- IC50: 9 nM

SMILES: CNC(=O)c1nc[nH]c1C(=O)Nc1ccc(NC(=O)c2ccc(F)cc2Cl)nc1 [Example 16, N^5-{6-[(2-chloro-4-fluorobenzoyl)amino]pyridin-3-yl}-N^4-methyl-1H-imidazole-4,5-dicarboxamide]
- IC50: 30 nM

SMILES: CC(C)(CN1CCOCC1)NC(=O)c1[nH]cnc1C(=O)Nc1ccc(NC(=O)c2ccc(F)cc2Cl)cc1 [Example 207, N^4-{4-[(2-chloro-4-fluorobenzoyl)amino]phenyl}-N^5-[2-methyl-1-(morpholin-4-yl)propan-2-yl]-1H-imidazole-4,5-dicarboxamide]
- IC50: 110 nM

SMILES: O=C(Nc1ccc(NC(=O)c2nc[nH]c2C(=O)NCCF)cc1)c1ccc(F)cc1Cl [Example 173, N^4-{4-[(2-chloro-4-fluorobenzoyl)amino]phenyl}-N^5-(2-fluoroethyl)-1H-imidazole-4,5-dicarboxamide]
- IC50: 30 nM

SMILES: NC(=O)c1nc[nH]c1C(=O)Nc1ccc(NC(=O)c2ccc(F)cc2Cl)cc1 [Example 121]
- IC50: 40 nM

SMILES: CC(C)NC(=O)c1nc[nH]c1C(=O)Nc1ccc(NC(=O)c2ccc(F)cc2Cl)cc1 [Example 10, N^5-{4-[(2-chloro-4-fluorobenzoyl)amino]phenyl}-N^4-isopropyl-1H-imidazole-4,5-dicarboxamide]
- IC50: 290 nM

SMILES: CNC(=O)c1nc[nH]c1C(=O)Nc1ccc(NC(=O)c2ccccc2Cl)cc1 [Example 27, N^5-{4-[(2-chlorobenzoyl)amino]phenyl}-N^4-methyl-1H-imidazole-4,5-dicarboxamide]
- IC50: 630 nM

SMILES: O=C(Nc1ccc(NC(=O)c2nc[nH]c2C(=O)NC2CC2)cc1)c1ccc(F)cc1 [Example 131, N^5-cyclopropyl-N^4-{4-[(4-fluorobenzoyl)amino]phenyl}-1H-imidazole-4,5-dicarboxamide]
- IC50: > 10000 nM
